The target in one test is T1, IGF-1R (Homo sapiens, UniProt P08069).
T1 construct: purchased Millipore
Put plainly: kinase inhibitory activity test (ELISA), IGF-1R. The format is biochemical. The settings on record: ATP 5 μM, 1 hour at 37° C. The procedure:
(§1) The enzyme substrate poly (glutamic acid, tyrosine)4:1 (Sigma) was diluted with potassium-free PBS (10 mM sodium phosphate buffer, 150 mM NaCl, pH 7.2-7.4) to 20 μg/mL, plate coated with 125 μL/well, reacted for 12-16 hours at 37° C. After the liquid in the wells was discarded, the plates were washed three times with 200 μL/well of T-PBS (PBS containing 0.1% Tween-20), and each time for 5 minutes, and then dried for 1-2 hours in an oven at 37° C. 50 μL of ATP solution diluted with reaction buffer (50 mM HEPES pH 7.4, 50 mM MgCl2, 5 mM MnCl2, 0.2 mM Na3VO4, 1 mM DTT) was added into each well and the final concentration was 5 μM. The compounds were diluted with 1% DMSO to suitable concentrations and were added at 10 μL/well. Then different types of tyrosine kinase proteins (including EGFR^wt, EGFR^T790M/L858R and IGF-1R, purchased from Millipore) diluted with 40 μL of reaction buffer were added. The above reaction system was reacted for 1 hour at 37° C. shaking table (100 rpm). Control wells with no enzyme and control wells with DMSO solvent were set in each experiment. After the reaction was completed, the plates were washed three times with T-PBS. The anti-phosphotyrosine primary antibody PY99 (Santa Cruz) was added at 100 μL/well and the antibody was diluted with T-PBS containing BSA 5 mg/mL by 1:1000. The mixture was reacted for 0.5 h at 37° C. shaking table, the plates were washed three times with T-PBS. The secondary antibody which was horseradish peroxidase-labeled goat anti-mouse IgG was added at 100 μL/well (the antibody was diluted with T-PBS containing BSA 5 mg/mL by 1:2000). The mixture was reacted for 0.5 h at 37° C. shaking table, the plates were washed three times with T-PBS. 2 l/mL of OPD coloring solution was added at 100 μL/well (diluted with 0.1 M citric acid-sodium citrate buffer (pH=5.4) containing 0.03% H2O2) and dark reacted for 1 to 10 minutes at 25° C. 2 M H2SO4 was added at 50 μL/well to terminate the reaction. Reading was carried out with an adjustable wavelength microplate enzyme-labeled instrument SPECTRA MAX 190 at 490 nm wavelength.
(§2) The IC50 value was calculated by the four-parameter fitting of the suppression curve.

The target of another test is T2, EGFR^wt (Homo sapiens, UniProt P00533).
T2 construct: purchased Millipore
Put plainly: kinase inhibitory activity test (ELISA), EGFR^WT. Type of test: biochemical. The settings on record: ATP 5 μM, 1 hour at 37° C. As for the experimental part: as §1, with “Then different types of tyrosine kinase proteins (including EGFR^wt, EGFR^T790M/L858R and IGF-1R, purchased from Millipore) diluted with 40 μL of reaction buffer were added.” left out
as §2
(In general: In an ELISA, binding on a coated surface is turned into a signal by an enzyme label.)

In another test the target is T3, EGFR^T790M/L858R (Homo sapiens, UniProt P00533, L858R/T790M).
T3 construct: purchased Millipore
Put plainly: kinase inhibitory activity test (ELISA), EGFR^T790M/L858R. Type of test: biochemical. Conditions: for IC50: ELISA, ATP 5 μM, 1 hour at 37° C.; for kinase inhibitory activity (in words): summary of Table 1. The procedure: as §1, with “Then different types of tyrosine kinase proteins (including EGFR^wt, EGFR^T790M/L858R and IGF-1R, purchased from Millipore) diluted with 40 μL of reaction buffer were added.” left out
as §2

The subject of test [1] is human epidermal carcinoma A431 cell line. The test is described as follows: SRB proliferation assay, A431 cells. The format is cell-based. Conditions: read-out: IC50 A431. As for the experimental part:
(§3) Cell lines: human epidermal carcinoma A431 cell line and human non-small cell lung cancer NCI-H1975 cell line was purchased from the American Standard Biology Collection Center (ATCC).
(§4) Methods: sulforhodamine B (SRB) method, which was as follows: certain number of different tumor cells in logarithmic growth phase were inoculated on 96-well culture plates. After cultured for 24 h to cell adherence, different concentrations of the test compounds of the invention were added. Each concentration was provided with three wells, and a corresponding concentration of DMSO solvent control and a cell-free zeroing well were set. After the cells were treated with the medicine for 72 h, the culture medium was discarded and 100 μL of 10% pre-cooled trichloroacetic acid solution was added to fix the cells. After placed for 1 h at 4° C., it was washed for 5 times with distilled water and dried naturally. Then 100 μL SRB (4 mg/mL) (Sigma) solution was added and stained for 15 min at room temperature. The staining solution was discarded and washed for 5 times with 1% glacial acetic acid and dried. Finally, 150 μL of 10 mM Tris solution (pH 10.5) was added and the OD value was measured at 515 nm with adjustable wavelength microplate enzyme-labeled instrument (VERSAmax™, Molecular Device Corporation, Sunnyvale, Calif., USA).
(In general: Sulforhodamine B stains cellular protein and so reports cell mass.)

Test [2] relates to human non-small cell lung cancer NCI-H1975 cell line. The test is described as follows: SRB proliferation assay, NCI-H1975 cells. Type of test: cell-based. The settings on record: read-out: IC50 NCI-H1975. As for the experimental part: as §3
as §4, with “USA). […] Based on the inhibitory effect of the 2-aminopyrimidine compounds on the growth of these cells, the half maximal inhibitory concentration (IC50) values were calculated, as shown in Table 2.” for “USA).”

Like-named read-outs stand apart in the source and are kept apart here. Where only a bound is given, the exact number is not on record here.

The results in this text go back to patent US10059694B2, “2-aminopyrimidine compound and pharmaceutical composition and use thereof” (Shanghai Institute of Materia Medica, Chinese Academy of …, priority 2014, dated 2018).

The term IC50 denotes the concentration at which inhibition is half-maximal.

T2 sequence (P00533 25-1210): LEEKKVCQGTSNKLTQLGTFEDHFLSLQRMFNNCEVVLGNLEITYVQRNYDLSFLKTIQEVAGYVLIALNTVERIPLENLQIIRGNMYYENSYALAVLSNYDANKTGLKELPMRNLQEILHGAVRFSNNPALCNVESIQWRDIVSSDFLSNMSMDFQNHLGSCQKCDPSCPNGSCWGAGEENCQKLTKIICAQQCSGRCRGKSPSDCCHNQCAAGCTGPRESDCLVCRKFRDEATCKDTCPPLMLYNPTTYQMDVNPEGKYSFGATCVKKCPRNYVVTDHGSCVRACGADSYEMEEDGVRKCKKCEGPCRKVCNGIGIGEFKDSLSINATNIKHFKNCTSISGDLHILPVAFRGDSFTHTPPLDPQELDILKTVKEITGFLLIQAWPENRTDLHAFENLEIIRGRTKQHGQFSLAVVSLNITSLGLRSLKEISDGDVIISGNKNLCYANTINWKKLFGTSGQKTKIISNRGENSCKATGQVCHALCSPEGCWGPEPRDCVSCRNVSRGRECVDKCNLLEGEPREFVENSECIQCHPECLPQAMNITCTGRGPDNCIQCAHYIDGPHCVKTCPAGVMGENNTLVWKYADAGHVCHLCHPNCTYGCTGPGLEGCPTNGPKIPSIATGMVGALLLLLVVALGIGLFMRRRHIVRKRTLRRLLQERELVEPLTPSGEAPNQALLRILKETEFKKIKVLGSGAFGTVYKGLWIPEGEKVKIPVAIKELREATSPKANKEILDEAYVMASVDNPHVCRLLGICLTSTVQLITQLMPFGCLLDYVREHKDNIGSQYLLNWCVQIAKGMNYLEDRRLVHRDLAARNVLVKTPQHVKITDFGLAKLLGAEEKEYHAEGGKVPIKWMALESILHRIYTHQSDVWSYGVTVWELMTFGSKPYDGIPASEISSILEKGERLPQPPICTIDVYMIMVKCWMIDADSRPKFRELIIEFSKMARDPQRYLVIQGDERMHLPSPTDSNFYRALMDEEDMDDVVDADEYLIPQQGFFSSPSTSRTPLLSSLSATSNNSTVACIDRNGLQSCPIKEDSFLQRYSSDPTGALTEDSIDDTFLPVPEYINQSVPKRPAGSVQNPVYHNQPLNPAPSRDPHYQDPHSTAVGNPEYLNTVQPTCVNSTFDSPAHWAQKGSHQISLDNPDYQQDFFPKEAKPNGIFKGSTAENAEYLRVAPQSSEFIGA
T3 sequence (P00533 25-1210 T790M/L858R): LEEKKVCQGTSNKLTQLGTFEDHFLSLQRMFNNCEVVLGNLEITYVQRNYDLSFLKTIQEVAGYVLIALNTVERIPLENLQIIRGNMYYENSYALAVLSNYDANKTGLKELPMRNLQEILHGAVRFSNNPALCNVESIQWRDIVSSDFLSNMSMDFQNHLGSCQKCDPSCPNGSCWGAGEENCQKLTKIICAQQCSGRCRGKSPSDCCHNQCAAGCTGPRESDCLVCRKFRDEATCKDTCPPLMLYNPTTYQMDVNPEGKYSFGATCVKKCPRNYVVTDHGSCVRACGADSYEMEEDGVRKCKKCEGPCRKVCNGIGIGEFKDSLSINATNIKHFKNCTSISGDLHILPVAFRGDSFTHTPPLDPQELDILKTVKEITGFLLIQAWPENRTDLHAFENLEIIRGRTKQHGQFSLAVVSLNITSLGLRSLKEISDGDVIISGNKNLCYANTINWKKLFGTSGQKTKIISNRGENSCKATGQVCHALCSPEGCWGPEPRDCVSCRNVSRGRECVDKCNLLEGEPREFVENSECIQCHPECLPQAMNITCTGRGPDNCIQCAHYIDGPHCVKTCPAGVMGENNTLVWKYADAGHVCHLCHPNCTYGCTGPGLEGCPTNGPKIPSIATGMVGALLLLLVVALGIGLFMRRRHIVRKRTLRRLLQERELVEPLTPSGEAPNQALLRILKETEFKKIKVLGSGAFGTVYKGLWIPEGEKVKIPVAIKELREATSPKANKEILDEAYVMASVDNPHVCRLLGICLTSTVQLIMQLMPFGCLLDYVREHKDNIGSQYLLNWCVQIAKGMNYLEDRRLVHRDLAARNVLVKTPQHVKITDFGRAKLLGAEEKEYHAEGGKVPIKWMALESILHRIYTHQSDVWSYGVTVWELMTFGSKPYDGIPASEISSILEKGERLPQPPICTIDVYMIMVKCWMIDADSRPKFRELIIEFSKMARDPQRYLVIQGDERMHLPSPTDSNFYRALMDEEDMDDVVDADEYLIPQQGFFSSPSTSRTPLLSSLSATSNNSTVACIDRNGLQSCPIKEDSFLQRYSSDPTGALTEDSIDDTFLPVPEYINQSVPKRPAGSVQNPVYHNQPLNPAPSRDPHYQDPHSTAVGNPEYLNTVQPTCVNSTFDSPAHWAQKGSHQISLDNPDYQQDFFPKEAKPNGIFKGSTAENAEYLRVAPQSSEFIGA
T1 sequence (P08069 31-1367): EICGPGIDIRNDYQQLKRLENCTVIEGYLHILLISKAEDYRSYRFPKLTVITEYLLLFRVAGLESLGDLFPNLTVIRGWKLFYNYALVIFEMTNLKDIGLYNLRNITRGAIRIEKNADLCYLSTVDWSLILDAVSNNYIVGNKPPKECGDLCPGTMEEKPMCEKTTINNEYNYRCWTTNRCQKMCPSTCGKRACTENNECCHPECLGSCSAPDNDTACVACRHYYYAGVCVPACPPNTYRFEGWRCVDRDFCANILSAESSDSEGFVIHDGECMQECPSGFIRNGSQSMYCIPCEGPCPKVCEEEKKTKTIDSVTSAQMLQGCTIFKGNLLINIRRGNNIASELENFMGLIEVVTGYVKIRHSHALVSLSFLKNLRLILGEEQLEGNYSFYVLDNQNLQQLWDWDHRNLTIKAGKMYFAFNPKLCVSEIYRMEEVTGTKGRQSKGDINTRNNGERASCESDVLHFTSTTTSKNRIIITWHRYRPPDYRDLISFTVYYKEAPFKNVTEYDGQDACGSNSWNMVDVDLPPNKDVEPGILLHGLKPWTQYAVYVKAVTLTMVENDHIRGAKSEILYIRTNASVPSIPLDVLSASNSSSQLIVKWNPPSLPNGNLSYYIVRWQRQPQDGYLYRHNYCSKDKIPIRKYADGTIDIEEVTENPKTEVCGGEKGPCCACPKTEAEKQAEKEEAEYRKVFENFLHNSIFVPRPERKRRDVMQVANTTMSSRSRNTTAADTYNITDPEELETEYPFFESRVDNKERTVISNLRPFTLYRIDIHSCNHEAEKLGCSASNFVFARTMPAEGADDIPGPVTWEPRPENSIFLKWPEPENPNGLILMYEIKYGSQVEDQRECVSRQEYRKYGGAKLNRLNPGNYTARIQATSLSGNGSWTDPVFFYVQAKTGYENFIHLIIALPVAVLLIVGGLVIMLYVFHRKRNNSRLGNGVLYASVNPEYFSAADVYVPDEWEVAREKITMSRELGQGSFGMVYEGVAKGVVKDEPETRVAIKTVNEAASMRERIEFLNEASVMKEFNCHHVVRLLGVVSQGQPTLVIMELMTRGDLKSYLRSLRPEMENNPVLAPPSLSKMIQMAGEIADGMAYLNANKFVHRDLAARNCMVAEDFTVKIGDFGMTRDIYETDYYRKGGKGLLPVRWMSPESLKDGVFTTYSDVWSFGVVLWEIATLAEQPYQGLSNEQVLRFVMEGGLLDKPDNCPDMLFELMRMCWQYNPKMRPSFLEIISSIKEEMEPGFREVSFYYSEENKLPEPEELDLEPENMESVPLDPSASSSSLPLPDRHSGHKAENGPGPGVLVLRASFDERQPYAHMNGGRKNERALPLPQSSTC

`C=CC(=O)Nc1cc(Nc2nccc(-c3cn(C)c4ccccc34)n2)c(OC)cc1N(C)CCN(C)C` [AZD9291, reference compound] had an IC50 at IGF-1R greater than 1000 nM.

On to `COc1ccc(NC(=O)/C=C/CN(C)C)cc1Nc1ncc(Cl)c(Nc2ccc3ccccc3c2)n1` [CCB118563, (E)-N-((3-((5-chloro-4-((naphthalen-2-yl)amino))pyrimidin-2-yl)amino)-4-methoxyphenyl)-4-(dimethylamino)-2-butenamide], for which the IC50 on EGFR^wt was 260 nM; against EGFR^T790M/L858R, 18.2 nM; on IGF-1R, 14.7 nM; in test [1] (A-431, 72 h), 1130 nM; in test [2] (NCI-H1975, 72 h) it was 306 nM.

As for `COc1ccc(NC(=O)/C=C/CN2CCCCC2)cc1Nc1ncc(Cl)c(Nc2ccc3ccccc3c2)n1` [CCB120024, (E)-N-((3-((5-chloro-4-((naphthalen-2-yl)amino))pyrimidin-2-yl)amino)-4-methoxyphenyl)-4-(piperidin-1-yl)-2-butenamide], the IC50 worked out at 318 nM against EGFR^wt; 1.9 nM on EGFR^T790M/L858R; 35.4 nM at IGF-1R; 6930 nM in test [1] (A-431, SRB, 72 h); 319 nM in test [2] (NCI-H1975, SRB, 72 h). The “kinase inhibitory activity (in words)” value at EGFR^T790M/L858R is listed as “potent”.

Regarding `COc1ccc(NC(=O)/C=C/CN2CCOCC2)cc1Nc1ncc(Cl)c(Nc2ccc3ccccc3c2)n1` [CCB120025, (E)-N-((3-((5-chloro-4-((naphthalen-2-yl)amino))pyrimidin-2-yl)amino)-4-methoxyphenyl)-4-(morpholin-1-yl)-2-butenamide], the IC50 was 567 nM on EGFR^wt; 11.9 nM at EGFR^T790M/L858R; 132 nM at IGF-1R; 895 nM in test [2] (NCI-H1975, SRB, 72 h).

`C=CC(=O)Nc1ccc(OC)c(Nc2ncc(Cl)c(Nc3ccc4ccccc4c3)n2)c1` [CCB120027, N-((3-((5-chloro-4-((naphthalen-2-yl)amino))pyrimidin-2-yl)amino)-4-methoxyphenyl)acrylamide]: the IC50 is 172 nM against EGFR^wt; 2.2 nM against EGFR^T790M/L858R; 263 nM at IGF-1R; greater than 10000 nM in test [1] (A-431, SRB, 72 h); 403 nM in test [2] (NCI-H1975, SRB, 72 h). Moreover, the “kinase inhibitory activity (in words)” value on EGFR^T790M/L858R is “potent”.

Turning to `COc1ccc(NC(=O)/C=C/CN2CCN(C(C)=O)CC2)cc1Nc1ncc(Cl)c(Nc2ccc3ccccc3c2)n1` [CCB120029, (E)-N-((3-((5-chloro-4-((naphthalen-2-yl)amino))pyrimidin-2-yl)amino)-4-methoxyphenyl)-4-(4-acetylpiperazin-1-yl)-2-butenamide], the IC50 worked out at 695 nM against EGFR^wt; 19.1 nM at EGFR^T790M/L858R; 99.4 nM against IGF-1R; 1050 nM in test [2] (NCI-H1975, SRB, 72 h).

Turning to `C=CC(=O)Nc1cc(CN(C)CCN(C)C)cc(Nc2ncc(Cl)c(Nc3ccc4ccccc4c3)n2)c1` [CCB120069, N-((3-((5-chloro-4-((naphthalen-2-yl)amino))pyrimidin-2-yl)amino)-5-((N-methyl-N-dimethylaminoethyl)methylamine)phenyl)acrylamide], the IC50 on EGFR^wt was 132 nM; at EGFR^T790M/L858R, 3.9 nM; on IGF-1R, 9 nM; in test [1] (A-431, SRB, 72 h), 535 nM; in test [2] (NCI-H1975, SRB, 72 h), 147 nM. The “kinase inhibitory activity (in words)” value at EGFR^T790M/L858R is on record as “potent”.

With `C=CC(=O)Nc1cc(CN(C)C)cc(Nc2ncc(Cl)c(Nc3ccc4ccccc4c3)n2)c1` [CCB120081, N-((3-((5-chloro-4-((naphthalen-2-yl)amino))pyrimidin-2-yl)amino)-5-(dimethylaminomethyl)phenyl)acrylamide], the IC50 stood at 170 nM against EGFR^wt; 5.1 nM against EGFR^T790M/L858R; 85.8 nM on IGF-1R; 37 nM in test [1] (A-431, SRB, 72 h); 16 nM in test [2] (NCI-H1975, SRB, 72 h).

`C=CC(=O)Nc1cc(CN2CCN(C)CC2)cc(Nc2ncc(Cl)c(Nc3ccc4ccccc4c3)n2)c1` [CCB120103, N-((3-((5-chloro-4-((naphthalene-2-yl)amino))pyrimidine-2-yl)amino)-5-((4-methylpiperazine-1-yl)methyl)phenyl)acrylamide]: the IC50 amounted to 102 nM on EGFR^wt; 3.1 nM on EGFR^T790M/L858R; 73.3 nM on IGF-1R; 1020 nM in test [1] (A-431, SRB, 72 h); 131 nM in test [2] (NCI-H1975, SRB, 72 h).

As for `C=CC(=O)Nc1cc(Nc2ncc(Cl)c(Nc3ccc4ccccc4c3)n2)c(OC)cc1N(C)CCNC` [CCB4580030, N-((5-((5-chloro-4-(naphthalene-2-ylamino)pyrimidine-2-yl)amino)-4-methoxy-2-(methyl(2-methylamino)ethyl)amino)phenyl)acrylamide], the figures for the IC50 on EGFR^wt, against EGFR^T790M/L858R and against IGF-1R were 3.1 nM, 2.2 nM and 7.8 nM, respectively.

As for `C=CC(=O)Nc1cccc(Nc2nc(Nc3ccc(N4CCN(C(C)=O)CC4)cc3OC)ncc2C(F)(F)F)c1` [CO1686, reference compound], the IC50 against IGF-1R amounted to 1320 nM; in test [1] (A-431, SRB, 72 h) it was 972 nM; in test [2] (NCI-H1975, SRB, 72 h) it was 215 nM.
